In patent US12600714B2, “Substituted pyrazinecarboxamide compounds for treating diseases related to EGFR mutation” (WIGEN BIOMEDICINE TECHNOLOGY (SHANGHAI) CO., LTD., priority 2020, dated 2026):

Key:
[1] = target: Ba/F3 (EGFR^del19/T790M/C797S) triple-mutant cells (Homo sapiens, UniProt P00533, T790M/C797S, cells depend on it, form not given); assay: Antiproliferative activity against Ba/F3 (EGFR del19/T790M/C797S) triple-mutant cells, Cell Titer Glow; type: cell-based; conditions: three days after addition of compounds; read-out: Antiproliferative activity BaF3(EGFR^del19/T790M/C797S) IC50
Protocol: (§1) Antiproliferative Activity of the Compounds Disclosed Herein Against Ba/F3 (EGFR^del19/T790M/C797S) Triple-Mutant Cells and A431 (EGFR WT) Cells
(§2) • 3000 Ba/F3 cells carrying EGFR (del19/T790M/C797S) or 2000 A431 cells were seeded in a 384-well plate. After one day, serially diluted compounds were added (up to 500 nM for Ba/F3 cells and up to 10 μM for A431 cells). Three days after the addition of the compounds, Cell Titer Glow was added to evaluate cell growth and the percentage cell growth inhibition by the compounds and the IC50 values were calculated.

EGFR (L858R/T790M/C797S) = EGFR (L858R/T790M/C797S) (Homo sapiens, UniProt P00533, C797S/L858R/T790M); assay: HTRF inhibitory activity assay against EGFR (L858R/T790M/C797S) enzyme; type: biochemical; conditions: read-out: EGFR (L858R/T790M/C797S) inhibition (%) (0.3 nM compound)
Protocol: Inhibitory Activity Assay of the Compounds Disclosed Herein Against EGFR (del19/T790M/C797S), EGFR (L858R/T790M/C797S) or EGFR (WT) Enzymes
The inhibitory effects of the compounds against EGFR (del19/T790M/C797S), EGFR (L858R/T790M/C797S) or EGFR (WT) enzyme activity was determined by using HTRF. The procedures are as follows:
The WT or mutant EGFR proteins were incubated with a serially diluted compounds at 28° C. for 10 min followed by addition of biotin-labeled general tyrosine kinase (TK) substrate and ATP. The mixture was incubated at room temperature for 40 min for reaction. After the termination of the reaction, an Eu3+-Cryptate-labeled antibody against TK and streptavidin-XL665 were added and the mixture was incubated at room temperature for 60 min. The luminescences at 615 nm and 665 nm were detected and the ratio of 665/615 was calculated to quantify the level of TK substrate phosphorylation. Inhibition % and IC50 of the compounds were calculated relative to the control group.

A431 (EGFR WT) cells = assay: Antiproliferative activity against A431 (EGFR WT) cells, Cell Titer Glow; type: cell-based; conditions: Homo sapiens, A-431, 72 h; three days after addition of compounds; read-out: Antiproliferative activity A431 wild-type (WT) IC50
Protocol: as §1, §2

EGFR (del19/T790M/C797S) = assay: HTRF inhibitory activity assay against EGFR (del19/T790M/C797S) enzyme; type: biochemical
Outline: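 Wild-type or mutant EGFR preincubated with serially diluted compound 10 min at 28 °C, then reacted 40 min at room temperature with biotinylated TK substrate and ATP. Phosphorylation detected by HTRF (Eu-cryptate anti-TK antibody, streptavidin-XL665, 60 min), 665/615 nm ratio; % inhibition and IC50 vs control.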

Chain of EGFR (L858R/T790M/C797S) (P00533 25-1210 T790M/C797S/L858R): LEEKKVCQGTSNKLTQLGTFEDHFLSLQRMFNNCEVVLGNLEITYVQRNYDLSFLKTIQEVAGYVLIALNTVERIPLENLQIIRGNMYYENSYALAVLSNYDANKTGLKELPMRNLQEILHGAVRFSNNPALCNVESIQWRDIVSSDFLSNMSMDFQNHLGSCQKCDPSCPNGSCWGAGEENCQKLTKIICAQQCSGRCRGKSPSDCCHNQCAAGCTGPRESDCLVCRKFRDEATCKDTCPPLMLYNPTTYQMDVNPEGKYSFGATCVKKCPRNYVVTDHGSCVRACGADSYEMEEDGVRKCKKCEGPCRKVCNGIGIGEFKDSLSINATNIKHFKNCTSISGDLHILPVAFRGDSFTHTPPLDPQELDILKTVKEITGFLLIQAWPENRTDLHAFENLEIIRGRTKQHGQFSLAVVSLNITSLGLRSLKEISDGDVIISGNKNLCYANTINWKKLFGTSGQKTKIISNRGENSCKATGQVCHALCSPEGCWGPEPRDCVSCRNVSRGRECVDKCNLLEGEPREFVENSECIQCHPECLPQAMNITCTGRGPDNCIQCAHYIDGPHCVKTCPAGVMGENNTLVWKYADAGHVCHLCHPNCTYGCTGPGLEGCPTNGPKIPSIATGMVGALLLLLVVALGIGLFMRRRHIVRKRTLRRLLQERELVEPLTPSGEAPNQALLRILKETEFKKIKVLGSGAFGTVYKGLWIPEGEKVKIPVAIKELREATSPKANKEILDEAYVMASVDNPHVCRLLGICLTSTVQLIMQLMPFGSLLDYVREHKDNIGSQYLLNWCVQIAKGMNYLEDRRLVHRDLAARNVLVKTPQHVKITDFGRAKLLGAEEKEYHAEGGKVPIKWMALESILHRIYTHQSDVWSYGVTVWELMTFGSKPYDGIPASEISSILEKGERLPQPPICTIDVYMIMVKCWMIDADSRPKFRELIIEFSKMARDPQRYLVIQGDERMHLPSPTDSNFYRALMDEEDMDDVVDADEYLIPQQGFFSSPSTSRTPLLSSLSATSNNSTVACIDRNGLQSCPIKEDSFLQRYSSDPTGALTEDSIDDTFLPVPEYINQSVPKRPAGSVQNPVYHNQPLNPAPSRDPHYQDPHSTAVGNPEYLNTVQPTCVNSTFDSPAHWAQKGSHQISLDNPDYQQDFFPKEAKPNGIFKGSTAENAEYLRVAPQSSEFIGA
Chain of Ba/F3 (EGFR^del19/T790M/C797S) triple-mutant cells (P00533 with tags, fused parts or gaps DEL746-750/T790M/C797S, form open): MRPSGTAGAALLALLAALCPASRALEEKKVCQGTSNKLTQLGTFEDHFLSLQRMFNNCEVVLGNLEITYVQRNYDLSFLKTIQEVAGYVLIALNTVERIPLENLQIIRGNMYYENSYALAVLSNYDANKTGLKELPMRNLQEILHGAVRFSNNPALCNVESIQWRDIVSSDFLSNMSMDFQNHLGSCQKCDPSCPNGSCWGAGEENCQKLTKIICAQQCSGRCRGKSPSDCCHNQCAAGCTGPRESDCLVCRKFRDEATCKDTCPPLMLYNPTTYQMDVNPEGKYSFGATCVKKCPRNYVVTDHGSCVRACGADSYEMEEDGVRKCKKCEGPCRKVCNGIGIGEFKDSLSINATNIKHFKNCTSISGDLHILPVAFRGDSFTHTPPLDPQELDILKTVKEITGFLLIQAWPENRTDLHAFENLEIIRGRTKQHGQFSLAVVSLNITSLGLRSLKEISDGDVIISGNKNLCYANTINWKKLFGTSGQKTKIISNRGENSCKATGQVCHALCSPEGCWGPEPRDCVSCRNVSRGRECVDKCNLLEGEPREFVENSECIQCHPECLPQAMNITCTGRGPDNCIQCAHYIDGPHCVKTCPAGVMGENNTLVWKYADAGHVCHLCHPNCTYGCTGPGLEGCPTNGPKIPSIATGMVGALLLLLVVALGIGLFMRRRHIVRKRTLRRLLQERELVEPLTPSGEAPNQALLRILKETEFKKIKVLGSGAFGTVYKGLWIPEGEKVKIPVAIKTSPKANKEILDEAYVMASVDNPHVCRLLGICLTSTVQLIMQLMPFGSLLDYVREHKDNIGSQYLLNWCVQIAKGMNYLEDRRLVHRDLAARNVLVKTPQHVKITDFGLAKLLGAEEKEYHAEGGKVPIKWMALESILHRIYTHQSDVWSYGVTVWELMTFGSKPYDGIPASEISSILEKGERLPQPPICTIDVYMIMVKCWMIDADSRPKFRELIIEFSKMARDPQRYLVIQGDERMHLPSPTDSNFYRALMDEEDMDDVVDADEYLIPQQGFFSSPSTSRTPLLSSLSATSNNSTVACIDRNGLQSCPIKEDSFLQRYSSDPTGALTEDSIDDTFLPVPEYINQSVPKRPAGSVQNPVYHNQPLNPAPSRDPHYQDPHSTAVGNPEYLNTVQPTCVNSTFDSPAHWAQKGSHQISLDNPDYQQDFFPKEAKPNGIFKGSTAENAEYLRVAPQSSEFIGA

Row | Compound | GI50 [1] [nM] | inhibition at 0.0003 µM (EGFR (L858R/T790M/C797S)) [%] | IC50 (A431 (EGFR WT) cells) [nM] | EGFR (del19/T790M/C797S) inhibition (%) (0.3 nM compound) (EGFR (del19/T790M/C797S))
1 | CCc1nc(C(N)=O)c(Nc2ccc(N3CCC(N4CCN(C)CC4)CC3)c(OC)c2)nc1NC1CCOCC1 [Gilteritinib, gilteritinib, reference compound] | > 500 | ≤ 20 |  | 
2 | CN1CCN(C2CCN(c3ccc(Nc4nc(N[C@H]5CC[C@H](O)CC5)c(-c5ccccc5)nc4C(N)=O)cc3)CC2)CC1 [compound 23] | 36 | ≤ 20 | 950 | ++ (++ indicates an inhibition from 20% to 50%)
3 | COC1CCC(Nc2nc(Nc3ccc(N4CCC(N5CCN(C)CC5)CC4)cc3)c(C(N)=O)nc2-c2ccccc2)C1 (stereo not drawn) [compound 35] | 54 | ≤ 20 | 480 | ++ (++ indicates an inhibition from 20% to 50%)
4 | CN1CCN(C2CCN(c3ccc(Nc4nc(NC5CCOCC5)c(-c5ccccn5)nc4C(N)=O)cc3)CC2)CC1 [compound 38] | 48 | 20 to 50 | 1800 | 
5 | CN1CCN(C2CCN(c3ccc(Nc4nc(NC5CCOCC5)c(-c5cccc(F)c5)nc4C(N)=O)cc3)CC2)CC1 [compound 60] |  | ≤ 20 |  | ++ (++ indicates an inhibition from 20% to 50%)
6 | CN1CCN(C2CCN(c3ccc(Nc4nc(NC5CCOCC5)c(-c5ccco5)nc4C(N)=O)cc3)CC2)CC1 [compound 69] |  | ≤ 20 |  | + (+ indicates an inhibition less than or equal to 20%)
7 | CN1CCN(C2CCN(c3ccc(Nc4nc(NC5CCOCC5)c(-c5cccs5)nc4C(N)=O)cc3)CC2)CC1 [compound 94] |  | ≤ 20 |  | ++ (++ indicates an inhibition from 20% to 50%)
8 | CN1CCN(c2ccc(Nc3nc(NC4CCOCC4)c(-c4ccncc4)nc3C(N)=O)cc2)CC1 [compound 118] | 82 |  | 4100 | ++ (++ indicates an inhibition from 20% to 50%)
9 | NC(=O)c1nc(-c2ccncc2)c(NC2CCOCC2)nc1Nc1ccccc1 [compound 119] | > 100 |  | > 10000 | + (+ indicates an inhibition less than or equal to 20%)
10 | CN1CCN(Cc2ccc(Nc3nc(NC4CCOCC4)c(-c4ccncc4)nc3C(N)=O)cc2)CC1 [compound 120] | 119 |  | 680 | + (+ indicates an inhibition less than or equal to 20%)
11 | CN1CCN(C2CCN(c3ccc(Nc4nc(NC5CCOCC5)c(-c5ccncc5)nc4C(N)=O)cc3F)CC2)CC1 [compound 122] | 40 |  | 380 | +++ (+++ indicates an inhibition greater than 50%.)
12 | NC(=O)c1nc(-c2ccncc2)c(NC2CCOCC2)nc1Nc1ccc(CN2CCOCC2)cc1 [compound 123] | 140 |  | > 10000 | ++ (++ indicates an inhibition from 20% to 50%)
13 | CN(C)c1ccc(Nc2nc(NC3CCOCC3)c(-c3ccncc3)nc2C(N)=O)cc1 [compound 124] | > 100 |  | > 10000 | + (+ indicates an inhibition less than or equal to 20%)
14 | CN1CCN(C2CCN(c3ccc(Nc4nc(N[C@@H]5CC[C@@H](O)C5)c(-c5ccccc5)nc4C(N)=O)cc3)CC2)CC1 [compound 137, 5-(((1R,3R)-3-hydroxycyclopentyl)amino)-3-((4-(4-(4-methylpiperazin-1-yl)piperidin-1-yl)phenyl)amino)-6-phenylpyrazine-2-carboxamide] |  | 20 to 50 |  | ++ (++ indicates an inhibition from 20% to 50%)
15 | Cc1cc(Nc2nc(NC3CCOCC3)c(-c3cc[nH]n3)nc2C(N)=O)ccc1N1CCC(N2CCN(C)CC2)CC1 [compound 177] | 19 |  | 690 | ++ (++ indicates an inhibition from 20% to 50%)
16 | CN1CCN(C2CCN(c3ccc(Nc4nc(NC5CCOCC5)c(-c5ccnc6[nH]ccc56)nc4C(N)=O)cc3)CC2)CC1 [compound 512] | 6 |  | 20 | +++ (+++ indicates an inhibition greater than 50%.)
17 | CN1CCN(C2CCN(c3ccc(Nc4nc(NC5CCOCC5)c(-c5cccc6[nH]ccc56)nc4C(N)=O)cc3F)CC2)CC1 [compound 519] |  | > 50 |  | +++ (+++ indicates an inhibition greater than 50%.)
18 | CN1CCN(C2CCN(c3ccc(Nc4nc(NC5CCC5)c(-c5cccc6[nH]ccc56)nc4C(N)=O)cc3)CC2)CC1 [compound 523] |  | > 50 |  | +++ (+++ indicates an inhibition greater than 50%.)
19 | CN1CCN(C2CCN(c3ccc(Nc4nc(NC5CCCC5)c(-c5cccc6[nH]ccc56)nc4C(N)=O)cc3)CC2)CC1 [compound 524] |  | > 50 |  | +++ (+++ indicates an inhibition greater than 50%.)
20 | CN1CCN(C2CCN(c3ccc(Nc4nc(N[C@H]5C[C@H](O)C5)c(-c5cccc6[nH]ccc56)nc4C(N)=O)cc3)CC2)CC1 [compound 525] | 25 |  | 60 | +++ (+++ indicates an inhibition greater than 50%.)
21 | CN1CCN(C2CCN(c3ccc(Nc4nc(NCC(C)(C)O)c(-c5cccc6[nH]ccc56)nc4C(N)=O)cc3)CC2)CC1 [compound 528] | 13 |  | 70 | +++ (+++ indicates an inhibition greater than 50%.)
22 | CN1CCN(C2CCN(c3ccc(Nc4nc(N[C@@H]5CCC[C@@H]5O)c(-c5cccc6[nH]ccc56)nc4C(N)=O)cc3)CC2)CC1 [compound 529] | 18 |  | 50 | +++ (+++ indicates an inhibition greater than 50%.)
23 | CN1CCN(C2CCN(c3ccc(Nc4nc(NC5CCC5)c(-c5cccc6[nH]ccc56)nc4C(N)=O)cc3F)CC2)CC1 [compound 532] |  | > 50 |  | +++ (+++ indicates an inhibition greater than 50%.)
24 | CN1CCN(C2CCN(c3ccc(Nc4nc(N[C@H]5CC[C@H](O)CC5)c(-c5cccc6[nH]ccc56)nc4C(N)=O)cc3F)CC2)CC1 [compound 535] |  | > 50 |  | +++ (+++ indicates an inhibition greater than 50%.)
25 | CN1CCN(C2CCN(c3ccc(Nc4nc(NC5CC6(COC6)C5)c(-c5cccc6[nH]ccc56)nc4C(N)=O)cc3F)CC2)CC1 [compound 536] |  | > 50 |  | +++ (+++ indicates an inhibition greater than 50%.)
26 | CC(C)Nc1nc(Nc2ccc(N3CCC(N4CCN(C)CC4)CC3)cc2)c(C(N)=O)nc1-c1ccncc1 [compound 611] | 21 |  | 360 | +++ (+++ indicates an inhibition greater than 50%.)
27 | CC(C)Nc1nc(Nc2ccc(N3CCC(N4CCN(C)CC4)CC3)cc2)c(C(N)=O)nc1-c1cc[nH]n1 [compound 616] | 32 |  | 360 | +++ (+++ indicates an inhibition greater than 50%.)
